From ChEMBL document CHEMBL1201862, “PubChem BioAssay data set” (2004) come the findings set out here.

In experiment [1] the target is Eukaryotic translation initiation factor 4H (Homo sapiens, UniProt Q15056). Briefly: eIF4H binding inhibition – biochemical, uHTS, fluorescence polarization, translation initiation inhibitor project, primary screen (AID 2012).
Experiment [2] has as its target Polyadenylate-binding protein 1 (Homo sapiens, UniProt P11940). The experiment can be described thus: blockers of PABP interaction with poly(A) – biochemical, fluorescence polarization, […] (AID 2014).
Experiment [3] addresses T1, DNA dC->dU-editing enzyme APOBEC-3G (Homo sapiens, UniProt Q9HC16). The experiment can be described thus: Dose Response confirmation of small molecule APOBEC3G DNA Deaminase Inhibitors via a fluorescence-based single-stranded DNA deaminase assay. [Related pubchem assays (depositor defined):AID493012, AID493028]. The class given is functional.
The target of experiment [4] is FAD-linked sulfhydryl oxidase ALR (Homo sapiens, UniProt P55789). The experiment can be described thus: ALR-catalysed DTT oxidation blockers – biochemical, H2O2 detection, luminescence, cherry-pick, dose response (AID 493248).
The target in experiment [5] is T2, Short transient receptor potential channel 4 (Mus musculus, UniProt Q9QUQ5).
T2 sequence (Q9QUQ5 whole entry): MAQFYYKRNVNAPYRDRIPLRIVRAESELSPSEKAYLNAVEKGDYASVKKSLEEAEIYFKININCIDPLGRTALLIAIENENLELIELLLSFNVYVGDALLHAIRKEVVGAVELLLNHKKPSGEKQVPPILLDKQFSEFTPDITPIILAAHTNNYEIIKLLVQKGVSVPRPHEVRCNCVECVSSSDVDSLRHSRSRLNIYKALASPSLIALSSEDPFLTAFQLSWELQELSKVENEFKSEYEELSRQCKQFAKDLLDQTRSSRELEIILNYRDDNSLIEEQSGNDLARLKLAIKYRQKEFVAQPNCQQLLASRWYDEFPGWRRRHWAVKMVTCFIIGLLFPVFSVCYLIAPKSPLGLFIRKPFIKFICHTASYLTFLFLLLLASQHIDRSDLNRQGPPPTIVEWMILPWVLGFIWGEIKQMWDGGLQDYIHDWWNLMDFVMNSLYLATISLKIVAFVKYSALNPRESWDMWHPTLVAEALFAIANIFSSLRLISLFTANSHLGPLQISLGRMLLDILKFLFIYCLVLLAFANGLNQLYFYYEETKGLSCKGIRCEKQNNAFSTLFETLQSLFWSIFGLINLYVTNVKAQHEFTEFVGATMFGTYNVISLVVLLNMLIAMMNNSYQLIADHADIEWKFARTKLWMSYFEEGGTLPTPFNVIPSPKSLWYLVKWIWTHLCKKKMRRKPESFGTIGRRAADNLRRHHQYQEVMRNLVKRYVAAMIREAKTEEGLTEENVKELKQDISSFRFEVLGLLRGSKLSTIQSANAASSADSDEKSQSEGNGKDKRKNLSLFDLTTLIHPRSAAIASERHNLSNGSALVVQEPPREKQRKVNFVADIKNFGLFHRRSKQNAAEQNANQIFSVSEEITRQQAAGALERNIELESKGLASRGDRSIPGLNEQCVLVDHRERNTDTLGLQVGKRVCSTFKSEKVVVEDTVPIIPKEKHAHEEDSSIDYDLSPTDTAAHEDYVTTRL
Briefly: calcium entry via TRPC4 opening agents – cell-based, HEK293 TRPC4/mu-opioid, Fluo-4 calcium, dose response (AID 434937). Format: functional.

The target of experiment [6] is G-protein coupled receptor 55 (Homo sapiens, UniProt Q9Y2T6). The experiment can be described thus: selective activators of receptor GPR55 – imaging, U2OS cells, beta-arrestin-GFP redistribution, primary screen (AID 1961). Format: functional.
The target in experiment [7] is Glucose-6-phosphate 1-dehydrogenase (Homo sapiens, UniProt P11413). Briefly: inhibition of Homo sapiens G6PD, dose series – biochemical, fluorescence, selectivity assay for P. falciparum G6PD inhibitor project, dose response (AID 504792). The class given is functional.
The target of a further experiment is T3, Protein RecA (Mycobacterium tuberculosis, UniProt P9WHJ3).
T3 sequence (P9WHJ3 whole entry): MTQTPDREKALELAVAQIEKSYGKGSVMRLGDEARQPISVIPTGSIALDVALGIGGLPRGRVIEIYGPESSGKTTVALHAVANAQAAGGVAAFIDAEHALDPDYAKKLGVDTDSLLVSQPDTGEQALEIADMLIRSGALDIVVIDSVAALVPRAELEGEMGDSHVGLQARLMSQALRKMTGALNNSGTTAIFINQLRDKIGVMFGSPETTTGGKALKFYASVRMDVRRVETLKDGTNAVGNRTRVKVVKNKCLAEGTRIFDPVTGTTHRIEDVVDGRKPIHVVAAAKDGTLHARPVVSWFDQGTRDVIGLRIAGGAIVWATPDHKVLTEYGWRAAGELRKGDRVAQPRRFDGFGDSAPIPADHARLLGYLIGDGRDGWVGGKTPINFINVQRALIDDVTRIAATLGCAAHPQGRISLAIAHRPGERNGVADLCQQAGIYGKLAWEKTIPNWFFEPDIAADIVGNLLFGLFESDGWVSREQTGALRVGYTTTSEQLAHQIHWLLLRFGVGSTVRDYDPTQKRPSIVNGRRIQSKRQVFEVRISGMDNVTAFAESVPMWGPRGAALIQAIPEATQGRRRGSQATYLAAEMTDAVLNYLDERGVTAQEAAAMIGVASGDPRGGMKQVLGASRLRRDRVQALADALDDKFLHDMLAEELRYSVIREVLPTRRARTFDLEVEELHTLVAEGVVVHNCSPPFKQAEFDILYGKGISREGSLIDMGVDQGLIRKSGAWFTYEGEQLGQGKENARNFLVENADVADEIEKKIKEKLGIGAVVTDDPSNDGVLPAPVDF
The experiment can be described thus: Fluorescence Cell-Free Homogeneous Dose Retest to Identify Inhibitors of RecA-Intein Splicing Activity. [Related pubchem assays (depositor defined):AID2097, AID2223, AID489010, AID492950]. Format: functional.

The target of a further experiment is Large T antigen (Simian virus 40, UniProt P03070). The class given is functional, Betapolyomavirus macacae.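 Further: Confirmatory-stage PubChem screen for compounds that inhibit SV40 T antigen.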
Experiment [8] has as its target T4, Replicative DNA helicase DnaB (Mycobacterium tuberculosis, UniProt P9WMR3).
T4 sequence (P9WMR3 whole entry): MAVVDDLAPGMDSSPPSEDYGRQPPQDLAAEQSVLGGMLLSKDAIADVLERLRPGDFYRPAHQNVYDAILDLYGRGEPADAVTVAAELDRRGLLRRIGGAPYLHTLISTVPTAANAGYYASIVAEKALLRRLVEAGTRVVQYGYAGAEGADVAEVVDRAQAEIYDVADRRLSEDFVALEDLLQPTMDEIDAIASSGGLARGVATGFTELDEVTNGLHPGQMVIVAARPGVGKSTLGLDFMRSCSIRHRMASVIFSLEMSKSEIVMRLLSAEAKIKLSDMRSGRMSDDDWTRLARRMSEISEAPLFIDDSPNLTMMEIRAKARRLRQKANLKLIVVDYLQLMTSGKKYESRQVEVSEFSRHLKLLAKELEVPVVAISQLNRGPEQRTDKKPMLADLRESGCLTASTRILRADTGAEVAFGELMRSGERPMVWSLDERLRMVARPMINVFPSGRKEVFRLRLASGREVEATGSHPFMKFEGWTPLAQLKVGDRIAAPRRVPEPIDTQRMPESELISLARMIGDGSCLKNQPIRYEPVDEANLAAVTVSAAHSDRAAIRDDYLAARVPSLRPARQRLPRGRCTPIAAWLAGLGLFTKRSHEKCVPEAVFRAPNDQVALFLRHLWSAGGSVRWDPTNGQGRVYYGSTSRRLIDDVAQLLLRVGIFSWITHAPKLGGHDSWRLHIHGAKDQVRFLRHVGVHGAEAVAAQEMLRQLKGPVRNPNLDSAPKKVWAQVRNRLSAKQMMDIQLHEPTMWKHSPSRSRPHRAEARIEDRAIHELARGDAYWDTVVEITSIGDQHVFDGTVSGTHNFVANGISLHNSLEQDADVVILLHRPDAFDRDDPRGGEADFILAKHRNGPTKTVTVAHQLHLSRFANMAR
Briefly: DnaB intein splicing inhibitors, dose response, biochemical, cell-free fluorescence (AID 449749). Format: functional.

For experiment [9], the target named is DNA dC->dU-editing enzyme APOBEC-3A (Homo sapiens, UniProt P31941). The experiment can be described thus: Dose Response confirmation of small molecule APOBEC3A DNA Deaminase Inhibitors via a fluorescence-based single-stranded DNA deaminase assay. [Related pubchem assays (depositor defined):AID493011, AID493024]. Format: functional.
Experiment [10] has as its target T1, DNA dC->dU-editing enzyme APOBEC-3G. Format: functional.
The target of another experiment is T5, Aminopeptidase N (Plasmodium falciparum FcB1/Columbia, UniProt O96935).
T5 sequence (O96935 whole entry): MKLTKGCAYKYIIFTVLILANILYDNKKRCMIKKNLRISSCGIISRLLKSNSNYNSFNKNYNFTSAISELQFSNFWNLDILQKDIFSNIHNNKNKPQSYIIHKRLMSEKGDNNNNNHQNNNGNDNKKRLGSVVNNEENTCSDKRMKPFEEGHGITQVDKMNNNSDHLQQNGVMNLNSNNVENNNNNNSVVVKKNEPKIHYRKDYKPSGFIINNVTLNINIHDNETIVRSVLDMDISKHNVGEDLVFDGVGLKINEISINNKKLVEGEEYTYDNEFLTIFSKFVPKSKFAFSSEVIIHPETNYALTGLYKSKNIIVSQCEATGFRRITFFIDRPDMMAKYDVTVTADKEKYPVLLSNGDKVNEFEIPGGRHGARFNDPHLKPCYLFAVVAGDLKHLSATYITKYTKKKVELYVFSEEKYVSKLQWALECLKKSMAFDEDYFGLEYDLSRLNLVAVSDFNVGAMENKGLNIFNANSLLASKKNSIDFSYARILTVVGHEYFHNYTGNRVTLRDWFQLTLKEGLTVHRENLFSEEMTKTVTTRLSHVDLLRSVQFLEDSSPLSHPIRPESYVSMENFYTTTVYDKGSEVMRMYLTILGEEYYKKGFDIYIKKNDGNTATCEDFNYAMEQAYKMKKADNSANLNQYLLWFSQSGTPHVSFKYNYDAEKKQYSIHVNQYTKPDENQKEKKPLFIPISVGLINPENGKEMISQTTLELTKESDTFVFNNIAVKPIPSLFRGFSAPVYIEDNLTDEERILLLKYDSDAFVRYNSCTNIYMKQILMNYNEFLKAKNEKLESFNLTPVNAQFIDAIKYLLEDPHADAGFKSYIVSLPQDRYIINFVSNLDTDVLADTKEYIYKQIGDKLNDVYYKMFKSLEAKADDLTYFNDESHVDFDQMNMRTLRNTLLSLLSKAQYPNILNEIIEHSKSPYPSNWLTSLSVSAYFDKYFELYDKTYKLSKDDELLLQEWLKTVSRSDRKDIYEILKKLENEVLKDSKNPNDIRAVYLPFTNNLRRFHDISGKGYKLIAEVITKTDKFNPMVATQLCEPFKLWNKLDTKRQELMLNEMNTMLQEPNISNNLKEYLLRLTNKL
Briefly: malaria alanyl aminopeptidase activity blockers – biochemical, fluorogenic H-Leu-NHMec substrate, 1536-well (AID 1445). On the set-up: species or system Plasmodium falciparum 3D7, 3D7.

Experiment [11] is described as follows: viability of uninfected HEp-2 cells – cell-based, HTS, cytotoxicity control for RSV inhibitor project, dose response (AID 2410). Format: functional. The settings on record: human respiratory syncytial virus.

The source made the active and inactive calls. Some results are limits rather than exact numbers.

Sequence of Polyadenylate-binding protein 1 (P11940 whole entry): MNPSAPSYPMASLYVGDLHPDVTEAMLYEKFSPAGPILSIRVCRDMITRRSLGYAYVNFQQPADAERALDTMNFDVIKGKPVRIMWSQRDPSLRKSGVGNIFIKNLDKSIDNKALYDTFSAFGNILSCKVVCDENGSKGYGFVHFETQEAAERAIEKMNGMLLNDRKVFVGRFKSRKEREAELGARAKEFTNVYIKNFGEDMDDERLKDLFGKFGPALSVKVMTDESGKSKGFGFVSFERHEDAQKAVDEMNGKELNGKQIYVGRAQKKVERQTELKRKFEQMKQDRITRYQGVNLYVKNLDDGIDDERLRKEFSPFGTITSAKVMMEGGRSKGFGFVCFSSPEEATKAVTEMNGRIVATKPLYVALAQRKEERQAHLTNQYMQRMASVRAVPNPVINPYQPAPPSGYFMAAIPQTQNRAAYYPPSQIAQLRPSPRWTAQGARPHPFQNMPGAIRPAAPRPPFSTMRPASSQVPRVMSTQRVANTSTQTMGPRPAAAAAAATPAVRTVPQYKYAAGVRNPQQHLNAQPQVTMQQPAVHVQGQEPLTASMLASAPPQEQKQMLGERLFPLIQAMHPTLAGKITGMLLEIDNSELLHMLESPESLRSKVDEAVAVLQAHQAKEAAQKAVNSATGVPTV
Sequence of DNA dC->dU-editing enzyme APOBEC-3A (P31941 whole entry): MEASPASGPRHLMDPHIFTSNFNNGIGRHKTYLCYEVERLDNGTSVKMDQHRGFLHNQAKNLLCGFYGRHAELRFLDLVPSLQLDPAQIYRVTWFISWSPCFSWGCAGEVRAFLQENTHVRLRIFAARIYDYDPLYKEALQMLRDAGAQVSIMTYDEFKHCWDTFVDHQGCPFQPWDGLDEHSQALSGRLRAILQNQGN
Sequence of Glucose-6-phosphate 1-dehydrogenase (P11413 whole entry): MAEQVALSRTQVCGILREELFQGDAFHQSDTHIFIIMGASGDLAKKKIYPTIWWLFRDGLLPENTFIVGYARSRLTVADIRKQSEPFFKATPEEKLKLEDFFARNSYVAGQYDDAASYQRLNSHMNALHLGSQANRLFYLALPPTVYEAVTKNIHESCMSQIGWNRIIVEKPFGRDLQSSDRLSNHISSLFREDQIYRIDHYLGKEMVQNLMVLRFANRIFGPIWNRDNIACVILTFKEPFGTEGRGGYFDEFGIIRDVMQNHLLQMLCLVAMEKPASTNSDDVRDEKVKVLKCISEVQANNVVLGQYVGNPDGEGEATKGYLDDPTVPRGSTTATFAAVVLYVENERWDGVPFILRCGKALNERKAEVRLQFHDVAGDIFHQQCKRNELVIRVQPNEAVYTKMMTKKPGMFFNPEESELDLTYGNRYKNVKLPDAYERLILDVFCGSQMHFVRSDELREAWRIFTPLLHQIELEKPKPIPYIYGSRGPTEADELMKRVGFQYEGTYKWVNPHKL
T1 sequence (Q9HC16 whole entry): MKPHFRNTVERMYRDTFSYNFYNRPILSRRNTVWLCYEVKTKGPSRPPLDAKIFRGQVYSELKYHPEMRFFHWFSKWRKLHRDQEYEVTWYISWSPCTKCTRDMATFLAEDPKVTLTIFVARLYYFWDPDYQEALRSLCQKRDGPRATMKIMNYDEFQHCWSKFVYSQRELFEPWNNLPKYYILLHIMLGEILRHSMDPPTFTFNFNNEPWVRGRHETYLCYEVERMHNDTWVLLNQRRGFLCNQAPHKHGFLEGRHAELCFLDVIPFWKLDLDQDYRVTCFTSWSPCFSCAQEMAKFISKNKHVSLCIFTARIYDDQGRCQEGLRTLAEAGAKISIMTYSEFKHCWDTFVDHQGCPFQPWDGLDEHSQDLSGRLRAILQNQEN
Sequence of G-protein coupled receptor 55 (Q9Y2T6 whole entry): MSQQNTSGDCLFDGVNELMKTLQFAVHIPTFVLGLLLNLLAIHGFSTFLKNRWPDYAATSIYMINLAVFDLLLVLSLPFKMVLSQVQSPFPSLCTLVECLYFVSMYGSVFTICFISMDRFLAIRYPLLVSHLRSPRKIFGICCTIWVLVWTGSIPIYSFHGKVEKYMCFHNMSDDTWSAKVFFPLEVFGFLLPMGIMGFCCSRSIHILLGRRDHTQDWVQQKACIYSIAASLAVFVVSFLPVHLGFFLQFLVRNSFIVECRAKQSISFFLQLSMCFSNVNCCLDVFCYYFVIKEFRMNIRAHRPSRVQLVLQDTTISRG
Sequence of FAD-linked sulfhydryl oxidase ALR (P55789 whole entry): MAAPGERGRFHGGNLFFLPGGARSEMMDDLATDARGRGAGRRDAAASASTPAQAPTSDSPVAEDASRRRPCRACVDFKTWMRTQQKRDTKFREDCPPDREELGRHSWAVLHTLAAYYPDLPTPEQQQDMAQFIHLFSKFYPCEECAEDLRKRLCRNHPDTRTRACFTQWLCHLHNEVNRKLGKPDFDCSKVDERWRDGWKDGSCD
Sequence of Large T antigen (P03070 whole entry): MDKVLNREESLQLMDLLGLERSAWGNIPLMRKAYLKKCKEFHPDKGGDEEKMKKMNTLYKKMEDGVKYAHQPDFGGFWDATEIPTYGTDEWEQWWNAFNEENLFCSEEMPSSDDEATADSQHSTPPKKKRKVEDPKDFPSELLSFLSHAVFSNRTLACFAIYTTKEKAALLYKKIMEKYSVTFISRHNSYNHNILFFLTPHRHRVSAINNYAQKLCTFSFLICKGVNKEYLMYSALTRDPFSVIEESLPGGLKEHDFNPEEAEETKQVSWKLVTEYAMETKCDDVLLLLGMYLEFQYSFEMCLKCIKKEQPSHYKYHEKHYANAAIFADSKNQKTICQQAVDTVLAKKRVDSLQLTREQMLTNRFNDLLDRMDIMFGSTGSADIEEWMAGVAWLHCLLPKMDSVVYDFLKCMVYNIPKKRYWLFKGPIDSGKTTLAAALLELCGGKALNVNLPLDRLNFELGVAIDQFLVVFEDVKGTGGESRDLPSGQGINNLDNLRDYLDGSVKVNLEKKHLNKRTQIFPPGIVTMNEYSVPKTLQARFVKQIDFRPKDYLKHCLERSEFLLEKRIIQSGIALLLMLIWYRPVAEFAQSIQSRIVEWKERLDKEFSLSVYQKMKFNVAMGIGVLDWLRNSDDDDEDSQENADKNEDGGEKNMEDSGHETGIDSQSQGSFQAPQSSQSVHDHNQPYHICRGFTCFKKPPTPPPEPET

For `CCN1C(=NCC(C)C)N[C@@H](c2cccc(F)c2)C(C(=O)OC)=C1C`, the IC50 was > 100 µM (inactive) in [1] and 5.33 µM (active) in experiment [2].
In the case of `O=S(=O)(Nc1ccc(O)c(NS(=O)(=O)c2ccccc2)c1)c1ccccc1`, the IC50 in experiment [3] was 55.1 µM (active). The AC50 in experiment [4] was 1.23 µM (active).
For `Cc1cc(=O)n2nc(-c3ccccc3)sc2c1C#N`, in experiment [3], the IC50 was 39.2 µM (active).
As for `CCn1c(N2CCN(S(=O)(=O)CC)CC2)nc2ccccc21`, in experiment [5], the EC50 is 2.66 µM (active).
`COc1ccc(C(=O)NC(=S)NCc2ccc(-c3nc4ccccc4o3)cc2)cc1OC`: in experiment [6], the EC50 is > 32 µM (inactive).
In the case of `CC1(C)Nc2ccc(O)cc2-c2c1ssc2=S`, the IC50 in [7] was > 80 µM (inactive); at Large T antigen, > 100 µM (active). Further, at Protein RecA, the EC50 is 0.998 µM (active). Besides, the half-maximal activity concentration (AC50) in experiment [8] is 9 µM (active).
Regarding `CCN1C(NCCOC)=N[C@@H](CCc2ccccc2)[C@H](C(=O)OC)[C@H]1C`, the IC50 in [9] was 3.39 µM (active); in experiment [10] it was 4.15 µM (active); in [1] it was > 100 µM (inactive); in experiment [2], 8.16 µM (active).
With `O=C(NCCNC1CCC(c2ccccc2)CC1)c1cccs1` (centres undefined), the EC50 in experiment [5] was 0.335 µM (active).
Regarding `O=C(NCc1ccccc1)C1CCN(S(=O)(=O)c2cccc3cccnc23)CC1`, the 50% inhibitory concentration (IC50) at Aminopeptidase N was 42.1 µM (active).
In the case of `Cc1nnc(SCC(=O)c2cc(C)n(-c3ccc4c(c3)OCO4)c2C)s1`, the IC50 in experiment [7] was > 80 µM (inactive).
With `CC(CCc1ccccc1)NC(=O)C(Cc1ccccc1)NS(=O)(=O)c1cccs1` (centres undefined), the IC50 at Aminopeptidase N was 71.4 µM (active).
For `CN(C)c1cccc2c1c(NC(=O)c1ccc(F)cc1)nn2C`, the IC50 in [7] is > 80 µM (inactive).
As for `CCOCCCn1c(S)nnc1-c1ccc(Cl)cc1`, the IC50 in [3] was 13.8 µM (active).
With `C[N+]1(C)C2CCC1CC(OC(=O)c1ccccc1)C2` (centres undefined), the IC50 in [9] was 2.96 µM (active); in experiment [10], 1.75 µM (active).
Take `COC(=O)C1=C(C)N(Cc2ccccc2)C(NCCCOC(C)C)=N[C@H]1c1ccccc1`: the IC50 in [9] is 3.37 µM (active); in [10], 5.12 µM (active).
Regarding `CCOc1ccccc1/N=C1/SCCCN1C`, the values for the IC50 in experiment [1] and in [2] were > 100 µM (inactive) and 4.4 µM (active), respectively.
Turning to `CCOc1cc(C2Nc3cccc4cccc(c34)N2)ccc1O`, in experiment [6], the EC50 is 8.01 µM (active). Besides, the half-maximal cytotoxic concentration (CC50) in experiment [11] is 20.2 µM (active).
